Test results from publication PMC8571282 (Nature Communications, 2021).
Read-outs that look alike come from different tables or passages of the source.

Experiments:
[1] = cited from earlier work
[2] = dogs, reported; cited from earlier work
[3] = in vivo; conditions: iv, 20 mg/kg

**Q.** For `N#C[C@@]1(c2ccc3c(N)ncnn23)O[C@H](CO)[C@@H](O)[C@H]1O` [GS-441524], which oral bioavailability ([1]; SARS-CoV2 mouse model report, ref Li et al (J. Med Chem. 2021)) is on record?
**A.** 5%

**Q.** And the oral availability ([1]; mice, ref Wei et al. (Bioorg. Med Chem Lett 2021, 116364))?
**A.** 16%

**Q.** And the oral availability [2]?
**A.** 89%

**Q.** And the AUC(0-t) [3]?
**A.** 81.1 µM·h

**Q.** What about the Cmax [3] of the same compound?
**A.** 54.2 µM

**Q.** And the clearance [3]?
**A.** 14.3 mL/min/kg

**Q.** And the half-life [3]?
**A.** 3.4 h
